# Measured values from patent US20220274983A1, “JAK KINASE INHIBITOR AND USE THEREOF” (JIANGSU CAREPHAR PHARMACEUTICAL CO., LTD., priority 2019, published 2022).
# Tests used:
# [1] = tested on: Hela cells; assay: Proliferation inhibition based on Hela cells (OSM stimulation, CTG); format: cell-based; conditions: Homo sapiens, OSM stimulation, read-out: IC50 (uM), proliferation inhibitory activity on Hela cells
# Description: 1. Cell plating: cultured cells were collected and counted for viable cells with Vi-Cell XR cell counter. The cell suspension was adjusted to an appropriate concentration with the medium and then added to a 96-well cell culture plate. 50 μL-100 μL of the cell suspension was added to each well of the 96-well cell culture plate. The cell plating density depended on the growth rate of the cells. The cells were cultured in corresponding incubators.
# 2. Drug Treatment and OSM Stimulation
# Firstly, a series of test compound concentration (work solution-1) was prepared using DMSO with 3× gradient dilution, and then it was subjected to fold dilution with RPMI1640+10% FBS to obtain a work solution-2; Cisplatin's work solution-2 was prepared with RPMI1640+10% FBS, and then 1-10 μL solution taken from the work solution-2 was added to the prepared cell wells containing medium. After incubation, 1-10 μL of OSM medium was added to each well and continued to culture. An appropriate CTG solution was added to each well. The mixture was shaken and mixed for 1-5 min and then a luminescence signal was determined with an Envision2104 plate reader.
# Cell Survival Rate Calculation
# T is the luminescence reading of a drug treatment group, and C is the average luminescence reading of a solvent control group.
# [2] = Stability of liver microsomes; format: in vitro ADME; conditions: 10 umol/L
# Description: Liver microsomes belonging to different species (human, rat) were respectively reacted with the compound according to the present invention for a certain period of time, and the residual rate was calculated by comparing a reacted sample with an unreacted sample, and the extent to which the compounds according to the present invention were metabolized by the liver was evaluated.
# [3] = tested on: rat CIA model; assay: Hindfoot foot volume in rat CIA model; format: in vivo, Lewis rats; conditions: CIA rats; for Foot volume (ml)/Day: hindfoot
# Description: Lewis rats (female, 10-12 weeks old) were obtained from Beijing Vital River Laboratory Animal Technology Co., Ltd. The rats were on a light and dark alternation for 12 h, and the environment was kept at a temperature of 23±2° C. and a humidity of 40-70%.
# Type II collagen solution (2 mg/mL) was prepared with 0.05 M acetic acid solution to allow to be fully dissolved, and placed overnight in the dark at 4° C. During the test, 2 mg/mL type II collagen (C II) solution and 4 mg/mL complete Freund's adjuvant (CFA) solution were mixed in equal volumes under ice bath conditions to fully emulsify. On day 0, an emulsion prepared by mixing equal volumes of C II (2 mg/mL) and CFA (4 mg/mL) was injected intracutaneously into the base of the tail of experimental rats for primary immunization, and on day 7, secondary booster immunization was performed.
# The therapeutic effect of the test compound was tested in a rat CIA model. The rats were randomly divided into groups with 8 animals in each group. All animals were immunized on day 0 and boosted on day 7.
# Therefore, the differences in body weight and foot volume after the onset of arthritis compared with the negative group, respectively, can be used to evaluate the therapeutic effect in the rat model. The experimental data were expressed as Mean±SEM; the data between the two groups was tested by unpaired t-test and p<0.05 was considered as a significant difference.
# [4] = tested on: main human CYP molecular species (CYP1A2, 2B6, 2C8, 2C9, 2C19, 2D6 and 3A4); assay: CYP inhibition test in mixed human liver microsomes; format: in vitro ADME
# Description: Commercially available mixed human liver microsomes were used for the typical substrate metabolism reaction of the main human CYP molecular species (CYP1A2, 2B6, 2C8, 2C9, 2C19, 2D6 and 3A4). The reaction conditions were as follows: substrate, CYP1A2: 30 μM of phenacetin; CYP2C9: diclofenac 10 μM; CYP2C19: 35 μM of S-methphenytoin; CYP3A4: midazolam 5 μM, testosterone 80 μM; CYP2D6: bufuralol, 10 μM; CYP2C8: 10 μM of paclitaxel; and CYP2B6: bupropion 70 μM; reaction time, CYP1A2, 2C9, 2D6, 2C8, 2B6: 10 min; CYP2C19: 45 min; and CYP3A4: 5 min. Reaction temperature, 37° C. Inhibitor (positive control), CYP1A2: α-naphthoflavone; CYP2C9: sulfaphenazole; CYP2C19: omeprazole; CYP3A4: ketoconazole; CYP2D6: quinidine; CYP2C8: nicardipine; and CYP2B6: clopidogrel.
# A series of dilutions for the test compound and the positive control were prepared in a 96-well plate, and 8 μL of 10 mM test compound was transferred to 12 μL of ACN. 1:3 serial dilution was performed in a DMSO:ACN mixture (v/v: 40:60). HLM was added to assay wells, and then the test compound or a reference inhibitor solution diluted with serum was added to the designated wells on ice. After the 96-well plate and NADPH solution was pre-incubated at 37° C. for 5 min, 15 μL of the pre-warmed 8 mM NADPH solution was added to the assay plate to start the reaction. […]
# [5] = Pharmacokinetic study; format: in vivo; conditions: rat, plasma; rats, oral, 1-10 mg/kg
# Description: For the intravenous route and the oral route, the compound was formulated in an aqueous solution containing 5% DMSO+95% hydroxypropyl-β-cyclodextrin. Test animals were administered orally at 1-10 mg/kg and intravenously at 1-5 mg/kg. Each group included 3 rats. About 0.2 mL of blood was collected by jugular vein puncture with heparin sodium anticoagulant at the following time points: 0.083 h, 0.25 h, 0.5 h, 1 h, 2 h, 4 h, 6 h, 8 h, 10 h and 24 h. Plasma was separated by centrifugation at 5000-13000 rpm for 10 min within 1 hour after collecting the blood sample, and the plasma sample was analyzed on LC-MS/MS.
# The pharmacokinetic parameters were calculated using Phoenix WinNonlin 7.0 based on blood drug concentration data at different time points to provide parameters such as AUC0-t, AUC0-∞, MRT0-∞, Cmax, Tmax, and T1/2.
compound,measurement,setting,value
"O=C(Nc1cn2c(-c3ccc(CN4CCS(=O)(=O)CC4)s3)cccc2n1)[C@H]1C[C@@H]1F (relative stereo) [EXP-3, trans-N-[5-[5-[(1,1-dioxo-1,4-thiazin-4-yl)methyl]-2-thiophene]imidazo[1,2-a]pyridin-2-yl]-2-fluoro-cyclopropylcarboxamide]",IC50,[1],< 5 µM
same,residual rate of the compound in oxidative metabolism,[2]; human liver microsomes,59.32%
same,residual rate of the compound in oxidative metabolism,[2]; rat liver microsomes,55.3%
same,"foot volume, relative potency in words",[3]; 10 mg/kg,the most potent and significantly stronger than filgotinib 10 mg/kg
same,Foot volume (ml)/Day,"[3]; 2 mg/kg oral gavage once daily for 2 w, day 0",2.603 ± 0.021 mL
same,Foot volume (ml)/Day,"[3]; 2 mg/kg oral gavage once daily for 2 w, day 8",2.590 ± 0.027 mL
same,Foot volume (ml)/Day,"[3]; 2 mg/kg oral gavage once daily for 2 w, day 11",2.634 ± 0.059 mL
same,Foot volume (ml)/Day,"[3]; 2 mg/kg oral gavage once daily for 2 w, day 14",3.648 ± 0.303 mL
same,Foot volume (ml)/Day,"[3]; 2 mg/kg oral gavage once daily for 2 w, day 17",4.465 ± 0.261 mL
same,Foot volume (ml)/Day,"[3]; 2 mg/kg oral gavage once daily for 2 w, day 21",4.600 mL
same,Foot volume (ml)/Day,"[3]; 2 mg/kg oral gavage once daily for 2 w, day 24",4.487 mL
same,Foot volume (ml)/Day,"[3]; 2 mg/kg oral gavage once daily for 2 w, day 28",4.181 mL
same,Foot volume (ml)/Day,"[3]; 3 mg/kg oral gavage once daily for 2 w, day 0",2.633 ± 0.017 mL
same,Foot volume (ml)/Day,"[3]; 3 mg/kg oral gavage once daily for 2 w, day 8",2.624 ± 0.010 mL
same,Foot volume (ml)/Day,"[3]; 3 mg/kg oral gavage once daily for 2 w, day 11",2.706 ± 0.037 mL
same,Foot volume (ml)/Day,"[3]; 3 mg/kg oral gavage once daily for 2 w, day 14",3.724 ± 0.239 mL
same,Foot volume (ml)/Day,"[3]; 3 mg/kg oral gavage once daily for 2 w, day 17",4.759 ± 0.291 mL
same,Foot volume (ml)/Day,"[3]; 3 mg/kg oral gavage once daily for 2 w, day 21",4.863 mL
same,Foot volume (ml)/Day,"[3]; 3 mg/kg oral gavage once daily for 2 w, day 24",4.754 mL
same,Foot volume (ml)/Day,"[3]; 3 mg/kg oral gavage once daily for 2 w, day 28",4.299 mL
same,Foot volume (ml)/Day,"[3]; 5 mg/kg oral gavage once daily for 2 w, day 0",2.631 ± 0.017 mL
same,Foot volume (ml)/Day,"[3]; 5 mg/kg oral gavage once daily for 2 w, day 11",2.703 ± 0.061 mL
same,Foot volume (ml)/Day,"[3]; 5 mg/kg oral gavage once daily for 2 w, day 14",3.684 ± 0.315 mL
same,Foot volume (ml)/Day,"[3]; 5 mg/kg oral gavage once daily for 2 w, day 17",4.516 ± 0.302 mL
same,Foot volume (ml)/Day,"[3]; 5 mg/kg oral gavage once daily for 2 w, day 21",4.724 mL
same,Foot volume (ml)/Day,"[3]; 5 mg/kg oral gavage once daily for 2 w, day 24",4.582 mL
same,Foot volume (ml)/Day,"[3]; 5 mg/kg oral gavage once daily for 2 w, day 28",4.176 mL
same,Foot volume (ml)/Day,"[3]; 10 mg/kg oral gavage once daily for 2 w, day 0",2.645 ± 0.017 mL
same,Foot volume (ml)/Day,"[3]; 10 mg/kg oral gavage once daily for 2 w, day 8",2.613 ± 0.017 mL
same,Foot volume (ml)/Day,"[3]; 10 mg/kg oral gavage once daily for 2 w, day 11",2.647 ± 0.075 mL
same,Foot volume (ml)/Day,"[3]; 10 mg/kg oral gavage once daily for 2 w, day 14",3.652 ± 0.287 mL
same,Foot volume (ml)/Day,"[3]; 10 mg/kg oral gavage once daily for 2 w, day 17",4.249 ± 0.342 mL
same,Foot volume (ml)/Day,"[3]; 10 mg/kg oral gavage once daily for 2 w, day 21",4.331 mL
same,Foot volume (ml)/Day,"[3]; 10 mg/kg oral gavage once daily for 2 w, day 24",4.125 mL
same,Foot volume (ml)/Day,"[3]; 10 mg/kg oral gavage once daily for 2 w, day 28",3.826 mL
same,CYP inhibition,[4],no inhibitory effect
O=C(Nc1nc2cccc(-c3ccc(CN4CCS(=O)(=O)CC4)s3)n2n1)C1CC1 [EXP-1],AUC,[5],12000 ng·h/mL
same,Cmax,[5],2630 ng/mL
same,half-life,[5],2.68 h
same,IC50,[1],< 5 µM
